Assay [1] deals with Wnt/β-catenin signaling (β-catenin activity) in SW480 cell line. As to the kind of experiment: Cell-based Wnt agonist screening, TCF luciferase reporter, SW480 (TCF-FL). More on the design: species or system human. The conditions noted are these: Homo sapiens, % of LiCl (20 mM), 24 h, read-out: Max. Activity (%); for Emax at 120 µM: Con. 120 μM; for Emax at 10 µM: Con. 10 μM; for Emax at 30 µM: Con. 30 μM; for Emax at 1 µM: Con. 1 μM. In short, it runs like this:
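HEK293 and SW480 lines stably carried a 5X TCF firefly luciferase reporter under G418 selection. Cells (8,000–15,000/well, RPMI 1640 with 5% FBS) were grown 24 h, then treated with compound for 24 h. Luciferase activity was expressed as percent of the 20 mM LiCl positive control.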
For orientation: A reporter such as luciferase makes a cellular process visible.

In assay [2] the test system is ST-2, a murine bone marrow stromal T cell. As to the kind of experiment: Differentiation of ST2 cell line into osteoblasts, alkaline phosphatase activity. The assay is classed as cell-based. The conditions noted are these: Mus musculus, 96 h; ST-2 cells, 11 μM compound, 4 days; control treated only with ascorbic acid and β-glycerolphosphate = 100; read-out: ALP Activity (% Control). The method, then:
The derivatives synthesized according to the present invention were assayed for their ability to differentiate stem cells into osteoblasts. In this regard, ST-2, a murine bone marrow stromal T cell, was used to measure the activity of bone-specific alkaline phosphatase, a marker of early-stage osteoblast differentiation. In detail, the cell line was cultured in an MEM supplemented with penicillin-streptomycin (100 Units/mL) and heat-inactivated 5% fetal bovine serum under standard culture conditions (5% CO2, 37° C., 100% relative humidity). […] The suspension was diluted with the same medium to adjust the cell count to 5,000˜10,000 cells per well, and was moved in a 96-well microtiter, subsequently. After being incubated for 24 hrs, the cells were treated in a medium containing 50 μg/ml of ascorbic acid and 5 mM of β-glycerolphosphate with various concentrations of the isoxazole derivatives synthesized in Preparation Examples. During incubation for one to nine days, the Alkaline phosphatase activity was analyzed using a […] Assay kit (Promega, U.S.A.) according to the protocol described in the manual provided by the manufacturer. The activities were measured in cells which had been incubated at 11 μM of each of the compounds for 4 days. Data on the activities of the isoxazole derivatives synthesized are given in Tables 44 to 47 and are expressed as percentages of ALP relative to that measured in the control, which was treated only with ascorbic acid and β-glycerolphosphate. ALP activities according to the concentrations of Derivative (1) are depicted in FIG. 5.

In the case of `Cc1ccc(N2CCN(CCNC(=O)c3cc(-c4ccco4)on3)CC2)cc1` [Derivative (183), 5-furan-2-yl-isoxazole-3-carboxylic acid {2-[4-(4-methylphenyl)-piperazin-1-yl]-ethyl}-amide], the Emax at 120 µM in assay [1] was found to be 114%. For the same compound, in assay [2], the activity at 11 µM stood at 127%.

Turning to `Cc1cccnc1N1CCN(CCNC(=O)c2cc(-c3ccco3)on2)CC1` [Derivative (190), 5-furan-2-yl-isoxazole-3-carboxylic acid {2-[4-(3-methyl-pyridin-2-yl)-piperazin-1-yl]-ethyl}-amide], the Emax at 120 µM in assay [1] worked out at 372%. Moreover, in assay [2], the activity at 11 µM worked out at 269%.

For the compound `O=C(NCCCn1ccnc1)c1cc(-c2ccc[nH]2)on1` [Derivative (160), 5-(1H-pyrrol-2-yl)-isoxazole-3-carboxylic acid (3-imidazol-1-yl-propyl)-amide], the Emax at 120 µM in assay [1] came out at 146%. In addition, the activity at 11 µM in assay [2] came out at 158%.

As for `CC(C)(C)c1cc(C(=O)NCCCn2cncn2)no1` [Derivative (168), 5-tert-butyl-3-isoxazole-3-carboxylic acid (3-[1,2,4]-triazol-1-yl-propyl)-amide], the Emax at 10 µM in assay [1] came out at 40%. Moreover, the activity at 11 µM in assay [2] came to 97%.

Regarding `O=C(NCCSc1ccccc1)c1cc(-c2cccs2)on1` [Derivative (218), 5-thiophen-2-yl-isoxazole-3-carboxylic acid (2-phenylsulfanyl-ethyl)-amide], in assay [1], the Emax at 30 µM is 55%. In addition, the activity at 11 µM in assay [2] was determined as 128%.

`O=C(NCCN1CCN(c2ccc(F)cc2)CC1)c1cc(-c2ccco2)on1` [Derivative (179), 5-furan-2-yl-isoxazole-3-carboxylic acid {2-[4-(4-fluorophenyl)-piperazin-1-yl]-ethyl}-amide]: the Emax at 10 µM in assay [1] is 73%. Moreover, the activity at 11 µM in assay [2] amounted to 356%.

With `Cn1cccc1-c1cc(C(=O)NCCCn2cncn2)no1` [Derivative (150)], the Emax at 30 µM in assay [1] stood at 78%. Further, the activity at 11 µM in assay [2] worked out at 328%.

For the compound `O=C(CNC(=O)c1cc(-c2ccco2)on1)c1ccccc1` [Derivative (205), 5-furan-2-yl-isoxazole-3-carboxylic acid (2-oxo-2-phenyl-ethyl)-amide], the Emax at 10 µM in assay [1] amounted to 59%. In assay [2], the activity at 11 µM worked out at 58%.

Consider `O=C(NCCNCc1ccccc1)c1cc(-c2ccco2)on1` [Derivative (197), 5-furan-2-yl-isoxazole-3-carboxylic acid (2-benzylamino-ethyl)-amide], for which, in assay [1], the Emax at 120 µM worked out at 84%. The activity at 11 µM in assay [2] is 118%.

In the case of `O=C(NCCNC(=O)c1cc(-c2cccs2)on1)c1ccccc1` [Derivative (210), 5-thiophen-2-yl-isoxazole-3-carboxylic acid (2-benzoylamino-ethyl)-amide], in assay [1], the Emax at 1 µM was 475%. The activity at 11 µM in assay [2] turned out to be 202%.

As for `O=C(NCCS(=O)(=O)Nc1ccccc1)c1cc(-c2cccs2)on1` [Derivative (220), 5-thiophen-2-yl-isoxazole-3-carboxylic acid (2-phenylsulfamoyl-ethyl)-amide], the Emax at 120 µM in assay [1] worked out at 182%. Also, in assay [2], the activity at 11 µM was 187%.

For the compound `O=C(NCCn1cncn1)c1cc(-c2cc3ccccc3o2)on1` [Derivative (171), 5-benzofuran-2-yl-isoxazole-3-carboxylic acid (2-[1,2,4]triazol-1-yl-ethyl)-amide], in assay [1], the Emax at 120 µM amounted to 43%. Moreover, in assay [2], the activity at 11 µM was 74%.

In the case of `O=C(NCCN1CCN(c2ncccc2C(F)(F)F)CC1)c1cc(-c2ccco2)on1` [Derivative (191), 5-furan-2-yl-isoxazole-3-carboxylic acid {2-[4-(3-trifluoromethyl-pyridin-2-yl)-piperazin-1-yl]-ethyl}-amide], the Emax at 30 µM in assay [1] was 91%. In addition, in assay [2], the activity at 11 µM was 309%.

As for `CC(C)c1ccc(NCCNC(=O)c2cc(-c3ccco3)on2)cc1` [Derivative (199), 5-furan-2-yl-isoxazole-3-carboxylic acid [2-(4-isopropyl-phenylamino)-ethyl]-amide], in assay [1], the Emax at 30 µM came out at 45%. Further, the activity at 11 µM in assay [2] amounted to 63%.

Take `CN(CCNC(=O)c1cc(-c2ccco2)on1)c1ccccc1` [Derivative (202), 5-furan-2-yl-isoxazole-3-carboxylic acid [2-(methyl-phenyl-amino)-ethyl]-amide]: the Emax at 30 µM in assay [1] amounted to 185%. For the same compound, the activity at 11 µM in assay [2] was 109%.

As to `O=C(NCCn1ccnc1)c1cc(-c2ccsc2)on1` [Derivative (157), 5-thiophen-3-yl-isoxazole-3-carboxylic acid (2-imidazol-1-yl-ethyl)-amide], in assay [1], the Emax at 30 µM is 871%. In addition, the activity at 11 µM in assay [2] came to 809%.

Take `O=C(NCCCn1ccnc1)c1cc(N2CCOCC2)on1` [Derivative (161), 5-morpholin-4-yl-isoxazole-3-carboxylic acid (3-imidazol-1-yl-propyl)-amide]: the Emax at 120 µM in assay [1] was found to be 33%. Moreover, the activity at 11 µM in assay [2] turned out to be 89%.

As to `COc1cccnc1N1CCN(CCNC(=O)c2cc(-c3ccco3)on2)CC1` [Derivative (189), 5-furan-2-yl-isoxazole-3-carboxylic acid {2-[4-(3-methoxy-pyridin-2-yl)-piperazin-1-yl]-ethyl}-amide], the Emax at 30 µM in assay [1] is 238%. Also, the activity at 11 µM in assay [2] was 220%.

As for `COc1ccc(N2CCN(CCNC(=O)c3cc(-c4ccco4)on3)CC2)cc1` [Derivative (181), 5-furan-2-yl-isoxazole-3-carboxylic acid {2-[4-(4-methoxyphenyl)-piperazin-1-yl]-ethyl}-amide], the Emax at 1 µM in assay [1] was 73%. Further, the activity at 11 µM in assay [2] is 681%.

With `O=C(NCCCn1ccnc1)c1cc(C2CCCCC2)on1` [Derivative (164), 5-cyclohexyl-3-isoxazole-3-carboxylic acid (3-imidazol-1-yl-propyl)-amide], the Emax at 120 µM in assay [1] amounted to 55%. In assay [2], the activity at 11 µM stood at 241%.

Turning to `O=C(NCCCn1cncn1)c1cc(-c2cc3ccccc3o2)on1` [Derivative (170), 5-benzofuran-2-yl-isoxazole-3-carboxylic acid (3-[1,2,4]triazol-1-yl-propyl)-amide], the Emax at 30 µM in assay [1] is 46%. Besides, the activity at 11 µM in assay [2] is 74%.

As for `O=C(NCCN1CCN(c2ccc(Cl)cc2)CC1)c1cc(-c2ccco2)on1` [Derivative (184), 5-furan-2-yl-isoxazole-3-carboxylic acid {2-[4-(4-chlorophenyl)-piperazin-1-yl]-ethyl}-amide], the Emax at 30 µM in assay [1] turned out to be 70%. In addition, the activity at 11 µM in assay [2] is 126%.

For `O=C(NCCNc1ccc(Cl)cc1)c1cc(-c2ccco2)on1` [Derivative (198), 5-furan-2-yl-isoxazole-3-carboxylic acid [2-(4-chloro-phenylamino)-ethyl]-amide], the Emax at 30 µM in assay [1] is 50%. For the same compound, in assay [2], the activity at 11 µM came out at 100%.

Consider `O=C(NCCN(c1ccccc1)c1ccccc1)c1cc(-c2ccco2)on1` [Derivative (196), 5-furan-2-yl-isoxazole-3-carboxylic acid (2-diphenylamino-ethyl)-amide], for which, in assay [1], the Emax at 30 µM was 35%. Further, the activity at 11 µM in assay [2] was found to be 77%.

With `O=C(NCCCn1cncn1)c1cc(C2CCCCC2)on1` [Derivative (165), 5-cyclohexyl-3-isoxazole-3-carboxylic acid (3-[1,2,4]-triazol-1-yl-propyl)-amide], in assay [1], the Emax at 30 µM stood at 45%. In addition, the activity at 11 µM in assay [2] worked out at 92%.

Regarding `Cn1cccc1-c1cc(C(=O)NCCn2cncn2)no1` [Derivative (151), 5-(1-methyl-1H-pyrrol-2-yl)-isoxazole-3-carboxylic acid (2-[1,2,4]triazol-1-yl-ethyl)-amide], the Emax at 30 µM in assay [1] turned out to be 41%. The activity at 11 µM in assay [2] was 151%.

Take `O=C(NCCN1CCN(c2ncccn2)CC1)c1cc(-c2ccco2)on1` [Derivative (192), 5-furan-2-yl-isoxazole-3-carboxylic acid [2-(4-pyrimidin-2-yl-piperazin-1-yl)-ethyl]-amide]: the Emax at 30 µM in assay [1] stood at 137%. Moreover, in assay [2], the activity at 11 µM amounted to 398%.

With `CC(=O)N1CCN(CCNC(=O)c2cc(-c3ccco3)on2)CC1` [Derivative (178), 5-furan-2-yl-isoxazole-3-carboxylic acid [2-(4-acetyl-piperazin-1-yl)-ethyl]-amide], the Emax at 120 µM in assay [1] was found to be 301%. In assay [2], the activity at 11 µM came to 475%.

Turning to `O=C(NCCn1cncn1)c1cc(N2CCOCC2)on1` [Derivative (163), 5-morpholin-4-yl-isoxazole-3-carboxylic acid (2-[1,2,4]-triazol-1-yl-ethyl)-amide], in assay [1], the Emax at 120 µM came to 34%. Also, the activity at 11 µM in assay [2] came out at 166%.

The values above are taken from patent publication US7915297B2, “Isoxazole derivatives and use thereof” (SK Holdings Co., Ltd., priority 2005, dated 2011).
